{"source": "patent US20060246095A1", "about": "“Multiepitope polypeptides for cancer immunotherapy” (HADASIT MEDICAL RESEARCH SERVICES & DEVELOPMENT LTD., priority 2003, published 2006)", "key": {"[1]": {"test_system": "specific T cell clones", "experiment": "Recognition assay for peptide presentation by DC, statements on T cell clones overall", "type": "cell-based, human", "conditions": "MEP-transfected DC, Lactacystin 25 μM and 50 μM", "method": "(§1) T cell clones were co-incubated with DC in flat 96-well plate for 24 hours. DC were plated immediately after their transfection or pulsing in 6 separated plates, in the presence of GM CSF and IL-4. 1×10^5 T cells were added to 1×10^5 pulsed or transfected DC. In the longitudinal study, T cell clones were added to the transfected/pulsed DC at the following time points: T0=immediately, +12=after 12 hours, 24, 36, 48 and 72 hours. Supernatants were collected after overnight incubation. Interferon gamma release assay was performed to evaluate T cell stimulation using the ELISA method, results are presented in pg/ml.\n(§2) Lactacystin was added to DC at concentrations of 25 μM and 50 μM, 4 hours post transfection. DC were incubated with lactacystin for 70 minutes and then washed twice.\n(§3) Responding T cells were added after washing the lactacystin and co-incubated. Supernatents were collected after 20 hours.\nEfficiency of epitope presentation and stimulation of specific T cell clone proliferation were evaluated by comparing the specific T cell clones response to the DC transfected with the multiepitope, to DC that were pulsed with specific peptides or DC transfected with full length melanoma associated antigens (gp100 and MART-1), using the recognition assay. […]"}, "[2]": {"test_system": "peripheral blood lymphocytes of breast carcinoma patients", "conditions": "cited from earlier work"}, "[3]": {"test_system": "mice", "conditions": "cited from earlier work"}, "[4]": {"test_system": "DC with CM (no T cell clone)", "experiment": "Recognition assay, CM in place of a T cell clone (IFN-γ background of DC)", "type": "cell-based, human", "conditions": "transfected or peptide-pulsed DC, CM instead of T cell clone", "method": "(§4) Dendritic cells were isolated from cytopheresis MNCs of melanoma patients with the HLA haplotypes HIA-A*0201 and HLA-DRβ1*0401. DC were generated from plastic adherent PBMCs cultured in RPMI with 10% human AB-serum, L-glutamine, penicillin-streptomycin, supplemented with GM-CSF 1000 IU/ml and IL-4 1000 IU/ml. By day 6, immature DC were harvested for electroporation.\n(§5) 2.5-3×10^6 DC were re-suspended in 100 μl nucleofector solution and added to 5 μg of DNA plasmid in 2-mm electrode gap cuvettes. Transfected DC were immediately plated with CM containing GM/IL4 or let mature using TNFα 100 ng/ml and PGE2 1000 ng/ml. GFP-transfected DCs were collected 16-24 hours later for FACS analysis.\n(§6) DC were pulsed with 1 μg/ml of the relevant peptides at 1×10^6 cells/ml. Stimulants were added after 1 hour incubation without washing the peptide.\nas §1\n(§7) For recognition assay of DC epitope presentation, 1×10^5 cells from different T cell clones, that were grown from PBMCs of patients, and were restricted to particular melanoma antigen peptides, were co-incubated with 1×10^5 pulsed or transfected DC, in the presence of GM-CSF and IL-4. T cell clones were added to the transfected/pulsed DC at the following time points: T=0 immediately, T=12, 24, 36, 48, 72 hours. Supernatant was collected after overnight incubation and was subjected to interferon gamma release assay, in order to evaluate the specific T cell activity towards the particular peptide presented by the DC cells.\n(§8) The results shown in the following tables represent the amount of Interferon-γ (pg/ml) secreted to the culture medium as an index for T cell stimulation."}, "[5]": {"test_system": "T cell clone CK3H6 (A2 restricted gp100 epitope 209-217)", "experiment": "Recognition assay for peptide presentation by DC (IFN-γ release ELISA), T cell clone CK3H6", "type": "cell-based, human", "method": "as §4, §5, §6\nCK3H6 which recognizes the A2 restricted gp100 epitope 209-217.\nas §1, §2, §3, §7, §8"}, "[6]": {"test_system": "TIL 1940 (A2 restricted MART-1 epitope 27-35)", "experiment": "Recognition assay for peptide presentation by DC (IFN-γ release ELISA), TIL 1940", "type": "cell-based, human", "conditions": "TIL 1940", "method": "as §4, §5, §6\nTIL 1940 which recognizes the A2 restricted MART-1 epitope 27-35.\nas §1, §2, §3, §7, §8"}, "[7]": {"test_system": "T cell clone RB-154 (gp100 154-162 peptide)", "experiment": "Recognition assay for peptide presentation by DC (IFN-γ release ELISA), clone RB-154", "type": "cell-based, human", "conditions": "control plate; peptide-pulsed DC; clone RB-154", "method": "as §4, §5, §6, §1, §7, §8"}, "[8]": {"test_system": "T cell clone BR-B8 (DR4-restricted gp100 epitope 44-59)", "experiment": "Recognition assay for peptide presentation by DC (IFN-γ release ELISA), clone BR-B8", "type": "cell-based, human", "conditions": "control plate; peptide-pulsed DC; clone BR-B8", "method": "as §4, §5\npcDNA-MEP and pcDNA-gp100 were co-transfected to detect Class II antigen presentation as an internal control.\nBR-B8 which recognizes the DR4-restricted gp100 epitope 44-59.\nas §1, §2, §3, §7, §8"}, "[9]": {"test_system": "TIL 1383 (A2 restricted tyrosinase epitope 369-377)", "experiment": "Recognition assay for peptide presentation by DC (IFN-γ release ELISA), TIL 1383", "type": "cell-based, human", "conditions": "control plate; peptide-pulsed DC; TIL 1383", "method": "as §4, §5, §6\nTIL 1383 which recognizes the A2 restricted tyrosinase epitope 369-377.\nas §1, §2, §3, §7, §8"}}, "data": [{"molecule": "CC(=O)N[C@@H](CSC(=O)[C@]1([C@@H](O)C(C)C)NC(=O)[C@H](C)[C@@H]1O)C(=O)O", "note": "[Lactacystin]", "values": [{"measurement": "effect of proteasomal inhibition on epitope expression", "setting": "[1]", "result": "decreased the epitope expression of MEP-Mel to background level"}]}, {"molecule": "BA46-6: peptide BA46-6 (NLFETPVEA) of Lactadherin, SEQ ID NO: 27 (listed as Homo sapiens)", "values": [{"measurement": "specific CTL activity", "setting": "[2]", "result": "elicited specific CTL activity"}, {"measurement": "specific CTL activity", "setting": "[3]", "result": "elicited specific CTL activity"}]}, {"molecule": "BA46-7: peptide BA46-7 (GLQHWVPEL) of Lactadherin, SEQ ID NO: 28 (listed as Homo sapiens)", "values": [{"measurement": "specific CTL activity", "setting": "[2]", "result": "elicited specific CTL activity"}, {"measurement": "specific CTL activity", "setting": "[3]", "result": "elicited specific CTL activity"}]}, {"molecule": "MART-1 27-35: peptide 27-35 of MART-1, SEQ ID NO: 18", "values": [{"measurement": "Interferon-γ secreted to the culture medium", "setting": "[4]; Donor 1, T = 12 hours", "result": 10, "unit": "pg/mL"}, {"measurement": "Interferon-γ secreted to the culture medium", "setting": "[4]; Donor 1, T = 48 hours", "result": 0, "unit": "pg/mL"}, {"measurement": "Interferon-γ secreted to the culture medium", "setting": "[4]; Donor 1, T = 72 hours", "result": 0, "unit": "pg/mL"}, {"measurement": "Interferon-γ secreted to the culture medium", "setting": "[4]; Donor 2, T = 12 hours", "result": 9, "unit": "pg/mL"}, {"measurement": "Interferon-γ secreted to the culture medium", "setting": "[4]; Donor 2, T = 24 hours", "result": 7, "unit": "pg/mL"}, {"measurement": "Interferon-γ secreted to the culture medium", "setting": "[4]; Donor 2, T = 36 hours", "result": 8, "unit": "pg/mL"}, {"measurement": "Interferon-γ secreted to the culture medium", "setting": "[4]; Donor 2, T = 48 hours", "result": 0, "unit": "pg/mL"}, {"measurement": "Interferon-γ secreted to the culture medium", "setting": "[4]; Donor 2, T = 72 hours", "result": 0, "unit": "pg/mL"}, {"measurement": "Interferon-γ secreted to the culture medium", "setting": "[5]; control plate, peptide-pulsed DC, T cell clone CK3H6", "result": 1, "unit": "pg/mL"}, {"measurement": "Interferon-γ secreted to the culture medium", "setting": "[5]; transfected or peptide-pulsed DC, Donor 1, T = 12 hours, CK3H6", "result": 11, "unit": "pg/mL"}, {"measurement": "Interferon-γ secreted to the culture medium", "setting": "[5]; transfected or peptide-pulsed DC, Donor 1, T = 24 hours, CK3H6", "result": 6, "unit": "pg/mL"}, {"measurement": "Interferon-γ secreted to the culture medium", "setting": "[5]; transfected or peptide-pulsed DC, Donor 1, T = 36 hours, CK3H6", "result": 10, "unit": "pg/mL"}, {"measurement": "Interferon-γ secreted to the culture medium", "setting": "[5]; transfected or peptide-pulsed DC, Donor 1, T = 48 hours, CK3H6", "result": 0, "unit": "pg/mL"}, {"measurement": "Interferon-γ secreted to the culture medium", "setting": "[5]; transfected or peptide-pulsed DC, Donor 1, T = 72 hours, CK3H6", "result": 0, "unit": "pg/mL"}, {"measurement": "Interferon-γ secreted to the culture medium", "setting": "[5]; transfected or peptide-pulsed DC, Donor 2, T = 12 hours, CK3H6", "result": 10, "unit": "pg/mL"}, {"measurement": "Interferon-γ secreted to the culture medium", "setting": "[5]; transfected or peptide-pulsed DC, Donor 2, T = 24 hours, CK3H6", "result": 10, "unit": "pg/mL"}, {"measurement": "Interferon-γ secreted to the culture medium", "setting": "[5]; transfected or peptide-pulsed DC, Donor 2, T = 36 hours, CK3H6", "result": 8, "unit": "pg/mL"}, {"measurement": "Interferon-γ secreted to the culture medium", "setting": "[5]; transfected or peptide-pulsed DC, Donor 2, T = 48 hours, CK3H6", "result": 0, "unit": "pg/mL"}, {"measurement": "Interferon-γ secreted to the culture medium", "setting": "[5]; transfected or peptide-pulsed DC, Donor 2, T = 72 hours, CK3H6", "result": 0, "unit": "pg/mL"}, {"measurement": "Interferon-γ secreted to the culture medium", "setting": "[6]; control plate, peptide-pulsed DC", "result": ">2000", "unit": "pg/mL"}, {"measurement": "Interferon-γ secreted to the culture medium", "setting": "[6]; transfected or peptide-pulsed DC, Donor 1, T = 12 hours", "result": 9, "unit": "pg/mL"}, {"measurement": "Interferon-γ secreted to the culture medium", "setting": "[6]; transfected or peptide-pulsed DC, Donor 1, T = 24 hours", "result": 435, "unit": "pg/mL"}, {"measurement": "Interferon-γ secreted to the culture medium", "setting": "[6]; transfected or peptide-pulsed DC, Donor 1, T = 36 hours", "result": 99, "unit": "pg/mL"}, {"measurement": "Interferon-γ secreted to the culture medium", "setting": "[6]; transfected or peptide-pulsed DC, Donor 1, T = 48 hours", "result": 0, "unit": "pg/mL"}, {"measurement": "Interferon-γ secreted to the culture medium", "setting": "[6]; transfected or peptide-pulsed DC, Donor 1, T = 72 hours", "result": 0, "unit": "pg/mL"}, {"measurement": "Interferon-γ secreted to the culture medium", "setting": "[6]; transfected or peptide-pulsed DC, Donor 2, T = 12 hours", "result": 448, "unit": "pg/mL"}, {"measurement": "Interferon-γ secreted to the culture medium", "setting": "[6]; transfected or peptide-pulsed DC, Donor 2, T = 24 hours", "result": 254, "unit": "pg/mL"}, {"measurement": "Interferon-γ secreted to the culture medium", "setting": "[6]; transfected or peptide-pulsed DC, Donor 2, T = 36 hours", "result": 49, "unit": "pg/mL"}, {"measurement": "Interferon-γ secreted to the culture medium", "setting": "[6]; transfected or peptide-pulsed DC, Donor 2, T = 48 hours", "result": 0, "unit": "pg/mL"}, {"measurement": "Interferon-γ secreted to the culture medium", "setting": "[6]; transfected or peptide-pulsed DC, Donor 2, T = 72 hours", "result": 0, "unit": "pg/mL"}, {"measurement": "Interferon-γ secreted to the culture medium", "setting": "[7]", "result": 1, "unit": "pg/mL"}, {"measurement": "Interferon-γ secreted to the culture medium", "setting": "[8]", "result": 1, "unit": "pg/mL"}, {"measurement": "Interferon-γ secreted to the culture medium", "setting": "[9]", "result": 1, "unit": "pg/mL"}]}]}
